In patent US20170049739A1, “PROSTACYCLIN COMPOUNDS, COMPOSITIONS AND METHODS OF USE THEREOF” (INSMED INCORPORATED, priority 2013, published 2017):

Experiments:
CHO-K1 cells = assay: CHO-K1 cell proliferation assay; conditions: unformulated alkyl esters, 0.195 μM-25 μM, 48 hour incubation
Experimental: CHG-K1 cells were harvested when the cell monolayer was 50-90% confluent (use passage 4-11). Media was aspirated out of the flask, and cells were rinsed with 2 mL of F12 media. Next, 1 mL of pre-warmed (37° C.) 0.25%o trypsin-EDTA (Life Technologies, Cat#: 25300054) was added, and cells were dislodged from the flask by tapping it on the side. Complete growth media (F12 (Life Technologies, Cat #: 31765092) +10%FBS (Hyclone, Cat #: SH30071.03)+1× Pen-Strep (Life Technologies, cat #15140-122) was then added at a volume of 10 mL. Cells were eentrifuged at 250×g for 5 minutes at room temperature, and the media was aspirated. The cell pellet was resuspended in 10 ml. complete growth media. Cell number was determined using a hemacytometer. Ceils were then seeded at 2000 cells per well of a 96-well plate in 100 μL of complete growth media. The plate was incubated overnight at 37° C. and 5% CO2 in a water-jacketed incubator.
The next day, 80 μL of fresh complete media was added to each well, and CHO—K1 cells were challenged with treprostinil compound and composition treatments. The working solutions were prepared at 10× concentration, and following 2 fold serial dilutions, 20 μL aliquots were added per well to arrive at a final 1× concentration. Following a 48 hour incubation at 37° C. and 5% CO2 in a water-jacketed incubator, the inhibitory effect on cell proliferation was determined. Plates were analyzed using 20 μL of Presto Blue reagent (Life Technologies, cat #: A13262) per well. The reagent was mixed, and plates were incubated for 1 hour at 37° C. and 5% CO2 in a water-jacketed incubator. Plates were read using either a CytoFluor Series 4000 (PerSeptive BioSystems) or Synergy Neo microplate reader (BioTek) with emission λ: 590 nm and excitation λ: 560 nm.
Following a 48 hour incubation period, the inhibitory effect of the treprostinil derivative compositions on cell proliferation was determined.
CHO—K1 cells were challenged with treprostinil alkyl esters, i.e., TR compounds of Formula (A), having the following R2 groups: • C2, C3, C4, C5, C6, C8, C10 or C12 straight chain alkyl, at dosages ranging from 0.098 μM to 25 μM, Following a 48 hour incubation period, the inhibitory effect on cell proliferation was determined.
Following a 72 hour incubation period, the inhibitory effect on cell proliferation was determined. Following a 48 hour incubation period, the inhibitory effect on cell proliferation was determined.
Similarly, CHG-K1 cells were challenged with the treprostinil compositions T612 (R2═C2), T613 (R2═C8) at concentrations ranging from 1.41 μM to 180 μM.

[1] = Treprostinil alkyl ester conversion to treprostinil in rat lung tissue homogenate; type: in vitro ADME; conditions: 37° C., 200 nM, 10 mg/mL of protein, 4 hours
Experimental: (§1) Treprostinil alkyl ester conversion to treprostinil was also measured in the presence of rat, dog and monkey lung tissue homogenate at 37° C. Mere, data were calculated based on fit of exponential increase to the maximum (experiments performed in duplicate). The results of this study are provided below in Table 2A and FIG. 37. […] Both FIG. 37 experiments (left and right graphs) were performed in duplicate and the lines represent nonlinear exponential regression assuming 1 phase decay.

NR8383 cells = assay: NR8383 cell proliferation assay; type: cell-based, rat; conditions: unformulated alkyl esters, 0.195 μM-25 μM, 72 hour incubation
Experimental: Rat alveolar NR8383 cells were harvested when the monolayer was 50-90% confluent (use passage 5-11). Because the NR8383 cells include both adherent and non-adherent cells, media was transferred to a 50 mL Falcon tube. To obtain the cells remaining in the flask, 2 mL of plain media was added, and the remaining cells were scraped out of the 75 cm^2 flask with a cell scraper and added to the 50 mL tube. […] SH30071.03) […] Technologies, cat #: 15410-122)). Cell number was determined using a hemacytometer. […] Measurements and calculations were made as described above for the CHO-K1 cells.

[2] = Treprostinil alkyl ester conversion to treprostinil in dog lung tissue homogenate; type: in vitro ADME; conditions: 37° C., 200 nM, 10 mg/mL of protein, 4 hours
Experimental: as §1

[3] = Treprostinil alkyl ester conversion to treprostinil in monkey lung tissue homogenate; type: in vitro ADME; conditions: 37° C., 200 nM, 10 mg/mL of protein, 4 hours
Experimental: as §1

- Rate of treprostinil alkyl ester conversion [1]: 1.1 nmOL/h * g of protein
- Rate of treprostinil alkyl ester conversion [2]: 2.2 nmOL/h * g of protein
- Rate of treprostinil alkyl ester conversion [3]: 0.6 nmOL/h * g of protein
Compound: CCCCCCCCCCCCOC(=O)COc1cccc2c1C[C@H]1C[C@@H](O)[C@H](CC[C@@H](O)CCCCC)[C@H]1C2 [C12-TR, dodecyl-treprostinil]
- Effect on cell proliferation: concentration with detectable inhibition (CHO-K1 cells): No detectable cell inhibition
- Effect on cell proliferation (NR8383 cells): No detectable cell inhibition
